Test results from patent US20040014942A1, “Mutant strains capable of producing chemically diversified proteins by incorporation of non-conventional amino acids” (priority 2000, published 2004).

Legend:
[1] = system: strain β5366 (wild-type valS allele); assay: Sensitivity to non-canonical amino acids, growth inhibition zone on Petri dishes; type: cell-based, E. coli; settings: 100 mM solution in central well
Protocol: (1) 100 mM L-2-amino-butyrate
(2) 100 mM L-2-amino-valerate
(3) 100 mM L-2-3-diamino-propionate

[2] = system: twelve clones from serial propagation of β5366; assay: Growth factor test of clones after serial culture; type: cell-based, E. coli; settings: glucose mineral MS medium dishes
Protocol: The cells are then washed twice with deoxygenated mineral MS medium. A deoxygenated nutritive medium containing 10 ml glucose mineral MS medium to which 1.5 mM cysteine is added is inoculated at 1/100 using washed cells. The cells are then cultivated in anaerobiosis for 24 hours at 30° C. and a fresh tube containing 10 ml deoxygenated cysteine glucose mineral MS medium is inoculated with a 1/100 dilution of the culture at the preceding stationary phase. This procedure is repeated 26 times. At the end of this serial propagation, 12 clones from the liquid culture are isolated on dishes of thymidine (0.3 mM) glucose mineral MS medium (2 g/l) in aerobiosis and kept in suspension in the same liquid medium at −80° C. The twelve clones are tested on dishes containing glucose mineral MS medium with nutritional factors added.

[3] = system: strain β5366 (thyA:Val146); assay: Growth over a cysteine diffusion gradient; type: cell-based, E. coli
Source text: (§1) The plasmid pTS1 thus obtained propagates the allele thyA:Val146, in which the position 146 occupied in the wild-type thyA gene by the codon UGC of cysteine is occupied by the codon GUA of valine. The plasmid pTS1 is introduced by transformation, carried out according to the method of Sambrook and coll. (1989), in the strain ΔthyA of E. coli K12, β1308 (Lemeignan and coll., 1993), whereof the chromosome gene of the thymidylate synthase, thyA, is deleted. […] Thus, everything happens as if the cysteine could infiltrate the active site of the valyl-tRNA synthetase to form erroneous Cys-tRNA^val's capable of correcting the replacement of cysteine by valine in the active site of the thymidylate synthase. The excess valine would prevent the formation of these erroneous Cys-tRNA^val's.

[4] = system: strain β1308 (ΔthyA); assay: Growth over a cysteine diffusion gradient; type: cell-based, E. coli; settings: same conditions
Source text: as §1

[5] = system: adapted strain β8146; assay: Phenotypic suppression by metabolic precursors of cysteine; type: cell-based, E. coli; settings: 3 mM (L-thiazolidine4-carboxylate acid 2 mM), instead of thymidine or thymine
Source text: (§2) The nutritional requirement for cysteine of the adapted strains β8144 and β8146 is utilised to characterise metabolic precursors which can replace cysteine in the culture medium without giving rise to degradation by oxidation. […] However, the addition of none of these substances allows the growth of the strain β1308 leading to chromosomal deletion of the gene thyA of thymidylate synthase, thus excluding their contamination by traces of thymine or thymidine.

[6] = system: adapted strain β8144; assay: as above; type: cell-based, E. coli; settings: 3 mM (L-thiazolidine4-carboxylate acid 2 mM), instead of thymidine or thymine
Source text: as §2

[7] = system: strain β5455; assay: Growth with S-carbamyl-L-cysteine without thymine or thymidine; type: cell-based, E. coli; settings: 3 mM S-carbamyl-L-cysteine
Source text: A lysate of the phage P1 harvested from such a clone is used to transduce the strain β5366 carrying the plasmidic allele thyA:Val146. […] The other half of the transducers are incapable of this, and require thymine or thymidine to proliferate, just like the strain β5366. This proportion of the phenotypes is in accordance with the genetic distance between the loci valS and nrdD (0.4 mn). Thus, suppression of the false-sense mutation of thyA Cys->Val by a low concentration of exogenous cysteine could result from an alteration of the gene of valyl-tRNA synthetase. […] An A changed into a C causes replacement of the threonine at position 222 by proline, thus confirming the fixation of a genetic alteration in the gene valS of the strain β5455.

[8] = system: strains β5479, β5485 and β5486; assay: Phenotype of new valS mutants from mutator strain; type: cell-based, Escherichia coli
Source text: Three of these clones served to prepare lysates of the phage P1, which were used to transduce the strain β5366, by selecting for resistance to kanamycin, following the procedure of Example 5. […] The locus valS of the three strains β5479, β5485 and β5486, each corresponding to an SCC-suppressible transducer obtained from one of the three lysates was amplified by PCR and sequenced as described in Example 3. A different localised mutation was found for each of the three strains, viz. Arg 223 changed into His in the strain β5479, Val 276 changed into Ala in the strain β5485 and Asp 230 changed into Asn in the strain β5486.

[9] = system: strain β5419 with mutator allele dnaQ::miniTn10; assay: Selection on solid medium with S-carbamyl-L-cysteine; type: cell-based, E. coli; settings: dishes 0 to 8 mM, without thymidine, 96 hours at 30°, mutator allele only
Source text: The strain β5366 carrying the false-sense allele thyA:Val146 on the plasmid pTS1 is transduced with a lysate of the phage P1 harvested on an auxiliary strain of E. coli (β7170, Bouzon et al., 1997) in the chromosome of which a marker of resistance to kanamycin had been introduced at the locus nrdD, neighbour of the locus valS of the gene of valyl-tRNA synthetase, thus producing the strain β5419. A mutator allele of the gene dnaQ is introduced extemporaneously by transduction of the strain β5419 using a lysate of the phage P1 harvested on an auxiliary strain (MS2131, Shapiro, 1990) carrying a marker of resistance to the tetracycline dnaQ::miniTn10. […] After 24 hours, the cells are harvested, and washed twice in an identical volume of culture medium without thymidine. A volume of 0.1 ml of the resultant suspension, corresponding to approximately 10^8 bacteria, is spread on the surface of a series of Petri dishes containing a concentration of S-carbamyl-L-cysteine varying between 0 and 8 mM by adding 1 mM increments of the glucose mineral MS medium (2 g/l). The same procedure is applied to the non-mutator strain β5419, and to the wild-type gene dnaQ. All the Petri dishes are incubated for 96 hours at 30°. […]

[10] = system: strain β5274 (thyA:Ile146); assay: Phenotypic suppression by cysteine; type: cell-based, E. coli; settings: 0.1 mM isoleucine
Protocol: The plasmid pTS2 thus obtained propagates the allele thyA:Ile146, in which the position 146 occupied in the wild-type thyA gene by the codon UGC of cysteine is occupied by the codon AUA of isoleucine. The strain propagating the plasmidic allele thyA:Ile146, […], proves to require the nutritional addition of thymine, thymidine or cysteine in excess, as in the case of the strain β5366. Phenotypic suppression of the strain β5274 by cysteine is abolished by 0.1 mM isoleucine, just as that of the strain β5366 is abolished by valine. Thus everything happens as if the isoleucyl-tRNA synthetase was capable of forming erroneous Cys-tRNA^Ile's in the presence of an excess of cysteine, and this erroneous formation was prevented by the presence of an excess of isoleucine.

Compound | effect on growth [1] | replacing cysteine as a growth factor [5] | replacing cysteine as a growth factor [6] | also measured
NC[C@H](N)C(=O)O [L-2-3-diamino-propionate] | without effect |  |  | 
CCC[C@H](N)C(=O)O [L-2-amino-valerate] | without effect |  |  | 
N[C@@H](CS)C(=O)O [L-cysteine] |  |  |  | cysteine concentration in culture medium replacing thymine or thymidine as growth factor [2]: at least 1.5 mM; growth over a cysteine diffusion gradient ([3]; 30° C., glucose mineral MS medium, central well 0.1 ml of 400 mM L-cysteine): marginal growth; growth over a cysteine diffusion gradient [4]: does not give rise to any detectable growth
O=C(O)[C@@H]1CSCN1 [L-thiazolidine4-carboxylate acid] |  | capable of replacing cysteine as a growth factor | capable of replacing cysteine as a growth factor | 
NC(=O)SC[C@H](N)C(=O)O [S-carbamyl-L-cysteine] |  | capable of replacing cysteine as a growth factor | capable of replacing cysteine as a growth factor | growth in the absence of thymine or thymidine [7]: capable of growing; growth in glucose mineral solid medium without thymidine ([8]; 3 mM SCC, approximately half the transducers): capable of growing; concentration of S-carbamyl-L-cysteine at which colonies appear [9]: exceeding 2 mM
CSC[C@H](N)C(=O)O [S-methyl-L-cysteine] |  | capable of replacing cysteine as a growth factor | capable of replacing cysteine as a growth factor | 
CC[C@H](C)[C@H](N)C(=O)O [isoleucine] |  |  |  | effect on phenotypic suppression by cysteine [10]: abolished
CC(C)[C@H](N)C(=O)O [valine] |  |  |  | effect on growth over a cysteine gradient ([3]; 0.1 mM valine added to Petri dish medium): abolishes the growth
L-2-amino-butyrate | without effect |  |  | sensitivity to amino-butyrate ([8]; clones suppressing false-sense mutant Cys 146 Val of thyA): shows sensitivity
